Patent publication US20240285615A1, “MEDICAMENTS COMPRISING GLYCOSIDASE INHIBITORS” (priority 2021, published 2024)
Like-named read-outs stand apart in the source and are kept apart here.

Assays:
[1] = Phase 1 Part 1b: food effect, single 300 mg dose fasted/fed, plasma pharmacokinetics; assay type: in vivo, human; details: for Tmax / AUC(0-inf) / Cmax / half-life: human, plasma; for AUC(0-inf) / Cmax / half-life: arithmetic mean
Description: The study was a single-centre, randomized, placebo-controlled single- and multiple ascending dose study in healthy male and female (no childbearing potential) volunteers aged 18-80 years. Study objectives were safety, tolerability, food effect and pharmacokinetics. Following identification of safe and tolerable single doses in healthy male subjects aged 18-55 years, separate cohorts were dosed to assess food effect. Furthermore, multiple-dose safety, tolerability, pharmacokinetics, CSF drug levels and pharmacodynamics were assessed in elderly (age 55-80 years) male or healthy non-child-bearing potential female volunteers. [table]

[2] = test system: adults with PSP; experiment: Randomized, double-blind, placebo-controlled Phase 2 trial in PSP (Example 8); assay type: in vivo, human; details: 75 mg, 150 mg or 300 mg TID PO, 72-week treatment
[3] = test system: patients with probable PSP Richardson's syndrome; experiment: Phase 2 clinical trial in progressive supranuclear palsy (Example 6); assay type: in vivo, human; details: 300 mg or 150 mg TID PO, clinical study protocol
Source text: CLINICAL STUDY PROTOCOL: A Randomized, Double-blind, Placebo-Controlled Study to Evaluate the Efficacy and Safety of compound of formula (I) for the Treatment of Progressive Supranuclear Palsy
PRIMARY OBJECTIVE: To evaluate the safety and tolerability of two different doses of compound (I) compared with placebo for the treatment of PSP
STUDY DESIGN: This is a randomized, multi-centre, double-blind, placebo-controlled trial to study the safety and tolerability of compound (I) in patients with probable PSP Richardson's syndrome. Approximately 40 patients (40 to 85 years of age, inclusive) are randomized in a 2:1:1 ratio to 300 mg or 150 mg or placebo TID PO with meals.
For all subjects, a screening visit is performed up to 6 weeks prior to dosing to determine eligibility. Eligible patients take investigational product (compound (I) or placebo) orally daily for about 12 weeks. Safety and tolerability data are collected at required visits to the study site. In addition, an “at home visit” for safety assessment and blood draw is organized. An open-label extension period of 52 weeks takes place upon completion of the initial double-blind treatment period. […]
PRIMARY SAFETY ENDPOINT: Frequency of treatment-emergent adverse events recorded in the three treatment arms at Week 12.

[4] = test system: hTauP301L-Tg mouse model of tauopathy; experiment: In vivo effect on the hTauP301L-Tg mouse model of tauopathy; details: hTauP301L-Tg mice
Source text: Concomitant to the pathology, these mice progressively develop motoric deficits like clasping behaviour accompanied by a diminution of general mobility, and die prematurely at the age of 8-11 months (reMYND unpublished data, Terwel et al., 2005).

[5] = Compatibility studies and short-term stability studies of drug substance with excipients; assay type: physicochemical
Source text: Compound (I) is a drug substance with suitable physical, biopharmaceutical, and chemical characteristics for development of an immediate release capsule formulation. […] The blend powder to be filled into the capsules contains common excipients: microcrystalline cellulose, croscarmellose sodium, colloidal silicon dioxide and magnesium stearate. All ingredients were used in concentrations typical for solid oral formulations. The selection of excipients, for the capsule powder, was based on compatibility studies and short-term stability studies. […] The final DP contains the following excipients for the tablet core: microcrystalline cellulose, povidone, croscarmellose sodium, copovidone, silica colloidal anhydrous and sodium stearyl fumarate. A water-based film coat made from hypromellose, macrogol, titanium dioxide and iron oxide was sprayed onto the core tablets. All ingredients were used in quantities typical for oral solid formulations. The selection of excipients was further backed-up by compatibility studies and short-term stability studies of binary mixtures for key ingredients.

[6] = Summary statistics of steady-state metrics by mathematical modeling of pharmacokinetic data; design: species or system human
Source text: The following summary statistics of steady-state metrics have been determined based on the above experimental results (“Mathematical Modeling of Pharmacokinetic Data”, D. W. A. Bourne, Routledge, 2018): […]

[7] = Phase 1 Part 2: cerebrospinal fluid (CSF) pharmacokinetics after multiple BID doses; assay type: in vivo, human; details: for Cmax / AUC / half-life / Tmax: human, oral, CSF; for AUC: read-out: AUC0-tau; for Tmax: median (min, max)
Source text: Day 1: Twice a day (BID) dosing. Day 2: No dosing. Day 3-11: 9 days of BID dosing. Day 12: one dose in the morning.

[8] = po, single oral dose 300 mg, fasted condition, healthy elderly subjects
[9] = po, single oral dose 300 mg, fed condition, healthy elderly subjects
[10] = both sexes, 250 mg BID, Day 12, elderly subjects, arithmetic mean
[11] = both sexes, 500 mg BID, Day 12, elderly subjects, arithmetic mean
[12] = 100 mg BID, Day 12, elderly subjects, N=1

## CC(=O)Nc1nnc(N2CCN([C@@H](C)c3ccc4c(c3)OCO4)CC2)s1 [Compound (I)]
[1]
  overall exposure via AUC0-t and AUC0-inf, fed versus fasted: comparable
[1]; fasted state
  difference of exposure (AUC) and Cmax, healthy elderly versus healthy young cohort: 15%
[1]; healthy elderly subjects
  Cmax in fed state as share of Cmax in fasted state: about 60%
  delay of absorption in fed state: approximately 3 hours
  exposure (AUC) in fed state as share of exposure in fasted state: approximately 90%
[1]; oral, fasted condition, read-out: median Tmax
  Tmax: 1 h
[1]; oral, with high-fat, high-calorie meal, read-out: median Tmax
  Tmax: 4 h
[1]; [8]
  AUC(0-inf): 17100 ng·h/mL
  Cmax: 4160 ng/mL
  half-life: 436 min
[1]; po, single oral dose 300 mg, fasted condition, healthy elderly subjects, median (min, max), read-out: Tmax
  Tmax: 1 h
[1]; [9]
  AUC(0-inf): 15100 ng·h/mL
  Cmax: 2410 ng/mL
  half-life: 424 min
[1]; po, single oral dose 300 mg, fed condition, healthy elderly subjects, median (min, max), read-out: Tmax
  Tmax: 4 h
[2]
  efficacy, safety and tolerability of the preferred dosage regimen: especially effective, safe and well tolerated
[3]
  safety and tolerability of the preferred dosage regimen: especially safe and well tolerated
[4]
  extent of neuronal pathology: diminishing the extent of neuronal pathology
  motoric function (clasping behaviour, beam walk): improvement in motoric function
  survival rate: significant benefit in survival rate
[5]
  stability of the drug substance: suitably stable
[5]; capsule powder: microcrystalline cellulose, croscarmellose sodium, colloidal silicon dioxide, magnesium stearate
  compatibility with excipients: no incompatibility with the chosen excipients
[6]; BID 125 mg
  AUC mean: 12589 ng·h/mL
  AUC median: 12388 ng·h/mL
  Cavg mean: 521 ng/mL
  Cavg median: 358 ng/mL
  Cmax mean: 1508 ng/mL
  Cmax median: 1510 ng/mL
  Cmin mean: 139 ng/mL
  Cmin median: 130 ng/mL
[6]; BID 250 mg
  AUC mean: 25763 ng·h/mL
  AUC median: 25044 ng·h/mL
  Cavg mean: 1041 ng/mL
  Cavg median: 720 ng/mL
  Cmax mean: 3027 ng/mL
  Cmax median: 3019 ng/mL
  Cmin mean: 307 ng/mL
  Cmin median: 276 ng/mL
[6]; BID 500 mg
  AUC mean: 52673 ng·h/mL
  AUC median: 52166 ng·h/mL
  Cavg mean: 2178 ng/mL
  Cavg median: 1531 ng/mL
  Cmax mean: 6126 ng/mL
  Cmax median: 6133 ng/mL
  Cmin mean: 654 ng/mL
  Cmin median: 617 ng/mL
[6]; TID 75 mg
  AUC mean: 11072 ng·h/mL
  AUC median: 10887 ng·h/mL
  Cavg mean: 456 ng/mL
  Cavg median: 392 ng/mL
  Cmax mean: 1058 ng/mL
  Cmax median: 1053 ng/mL
  Cmin mean: 109 ng/mL
  Cmin median: 101 ng/mL
[6]; TID 150 mg
  AUC mean: 23204 ng·h/mL
  AUC median: 22835 ng·h/mL
  Cavg mean: 951 ng/mL
  Cavg median: 827 ng/mL
  Cmax mean: 2162 ng/mL
  Cmax median: 2143 ng/mL
  Cmin mean: 257 ng/mL
  Cmin median: 240 ng/mL
[6]; TID 300 mg
  AUC mean: 46780 ng·h/mL
  AUC median: 45869 ng·h/mL
  Cavg mean: 1909 ng/mL
  Cavg median: 1660 ng/mL
  Cmax mean: 4348 ng/mL
  Cmax median: 4298 ng/mL
  Cmin mean: 533 ng/mL
  Cmin median: 499 ng/mL
[7]; Day 12 after multiple doses
  blood-brain-barrier penetration (detection in CSF): penetrated through the blood-brain-barrier
[7]; [10]
  Cmax: 92.5 ng/mL
  AUC: 485 ng·h/mL
[7]; both sexes, 250 mg BID, Day 12, elderly subjects, arithmetic mean, read-out: t1/2 (converted)
  half-life: 618 min
[7]; both sexes, 250 mg BID, Day 12, elderly subjects
  Tmax: 3 h
[7]; [11]
  Cmax: 282 ng/mL
  AUC: 1400 ng·h/mL
[7]; both sexes, 500 mg BID, Day 12, elderly subjects, arithmetic mean, read-out: t1/2 (converted)
  half-life: 648 min
[7]; both sexes, 500 mg BID, Day 12, elderly subjects
  Tmax: 2.02 h
[7]; both sexes, 100 to 500 mg BID, read-out: terminal half-life (t½), range of means
  half-life: 234 to 642 min
[7]; [12]
  Cmax: 46.7 ng/mL
  AUC: 236 ng·h/mL
  Tmax: 4.03 h
[7]; 100 mg BID, Day 12, elderly subjects, N=1, read-out: t1/2 (converted)
  half-life: 347 min
